Several values for one entry are separate records, joined by “and”; a condition that tells them apart may be missing. Identical values can stand only once.
What was measured:
Format in all cases: cell-based, human
[1] = system: ISG expression in SSc PBMCs; assay: SSc PBMC type I IFN signaling gene expression array, unstimulated
Method: (§1) PBMCs in vitro experiments
(§2) Peripheral blood mononuclear cells (PBMCs) from healthy and SSc donors were separated using density gradient method (Leucosep™, Greiner Bio-One International) from EDTA anticoagulated peripheral blood; isolated cells were washed twice by PBS. PBMCs were then incubated in RPMI1640 […]
(§3) For healthy PBMCs, cells were stimulated with 20 ng/mL of IFN (+/- compounds or DMSO). For SSc PBMCs, cells were in basal conditions with no additional IFN stimulation. Cells were centrifuged at 300 g for 10 minutes. […]
(§4) RNA was extracted from cell pellets using TRIzol™ (ThermoFisher
(§5) Scientific, Waltham, MA) and processed using Quick-RNA Miniprep Kit (Zymo Research) as per the manufacturer’s instruction.
(§6) For Type I IFN signalling analysis, the human IFN I RT2 Profiler PCR Array (Qiagen, PAMM-016ZE) was performed on available RNA from healthy (n=3) and SSc (n=9) donors. RNA was converted to cDNA using RT2 First Strand Kit (Qiagen). Next, the cDNA was mixed with RT2 SYBR Green Mastermix (Qiagen, Venlo). Successful PCR performance was confirmed by assay tests for genomic DNA contamination, RNA sample quality, as well as single melt curve determination and <35 Ct for each gene, leading to validated gene expression of 67 genes. Relative expression for each gene was determined, firstly by ∆CT calculated using the geometric mean of 4 housekeeping genes (ACTB, GAPDH, HPRT1, RPLP0), followed by 2^(-∆CT), and expressed as fold change to control, according to manufacturer’s guidance. IFN2α-induced ISGs in healthy donors were determined using a Student’s t-test (two-tail distribution and equal variances) on the triplicate fold change in 2^(-ΔCT) values between […]
(§7) donors). Heatmaps were generated using the “pheatmap” function in R (v4.0.2) and RStudio (v1.3.1093) applying row scaling to standardise the expression data across samples (R core team 2020.
(§8) R Foundation for Statistical Computing). The IFN2α inducible genes determined in healthy donors […]
(§9) 171-C. To account for Type I IFN signalling heterogeneity across samples, the mean 2^(-∆CT) for each […]
(§10) relative gene expression, illustrated as a fold change and visualised in log2. The Type I IFN signalling array data for the patient samples is included in Source Data Figure 6, Extended Data Fig. 9.

[2] = system: ISG expression in MCF10A Cas9 cells expressing BRCC45 WT; assay: MCF10A BRCC45 WT ISG expression (RT–qPCR); details: hIFNα2 75 ng/ml, 2.5 μM, 4 h
[3] = system: CXCL10 secretion in healthy PBMCs; assay: Healthy PBMC CXCL10 ELISA, IFNα2-stimulated
Method: as §1, §2
For healthy PBMCs, cells were stimulated with 20 ng/mL of IFN (+/- compounds or DMSO). For SSc PBMCs, cells were in basal conditions with no additional IFN stimulation. Cells were centrifuged at 300 g for 10 minutes. Supernatant was removed and subjected to R&D Systems DY266 Human CXCL10/IP-10 DuoSet ELISA (Biotechne) in duplicates, according to manufacturer’s guidance. Concentration of CXCL10 was determined according to a 4-parameter

[4] = system: composite ISG score in SSc PBMCs; assay: SSc PBMC composite ISG score (CXCL10, IFIT1, ISG15, MX1)
Method: as §1, §2, §3, §4, §5, §6, §7, §8, §9, §10

[5] = system: ISRE in THP-1 cells (TLR3 agonist polyI:C); assay: THP-1 ISRE luciferase reporter, polyI:C stimulation; details: polyI:C 1 µg/mL, 4 μM compound, 16 h
[6] = system: NF-κB pathway in THP-1 cells; assay: THP-1 NF-κB pathway SEAP reporter, lipopolysaccharide stimulation; details: LPS + compound, three replicates
[7] = unstimulated PBMCs from SSc patients, one value per patient (P1-P9)
[8] = sheet Ext. 9e, SSc PBMCs, 20 values per compound (one per patient sample)

O=C(NC1C2CNCC21)c1nn(C(=O)c2c(Cl)cccc2Cl)cc1NC(=O)c1c(Cl)cccc1Cl (stereo not shown) [FX-171-C]
ISG expression (in words) ([1]; SSc PBMCs (n = 9), 2 µM, 16 h, compared to AP-5-145): lesser effect
ADAR, Type I IFN signalling array raw data [1, 7]: 3.858 and 4.274 and 4.001 and 4.68 and 4.777 and 4.208 and 3.331 and 4.913 and 3.918
BST2, Type I IFN signalling array raw data [1, 7]: 3.573 and 2.8591 and 2.177 and 3.614 and 3.672 and 2.327 and 3.468 and 1.591 and 2.873
CASP1, Type I IFN signalling array raw data [1, 7]: 2.548 and 2.002 and 1.941 and 1.134 and 2.888 and 1.296 and 2.046 and 2.574 and 1.867
CD86, Type I IFN signalling array raw data [1, 7]: 6.165 and 2.65 and 5.65 and 3.485 and 4.729 and 3.419 and 6.169 and 4.499 and 4.78
CXCL10, Type I IFN signalling array raw data [1, 7]: 5.471 and 2.917 and 2.582 and 4.742 and 4.877 and 6.905 and 4.483 and 4.8707 and 3.923
DDX58, Type I IFN signalling array raw data [1, 7]: 3.35 and 3.309 and 2.1354 and 2.913 and 3.785 and 3.502 and 1.974 and 1.829 and 2.968
GBP1, Type I IFN signalling array raw data [1, 7]: 2.688 and 1.367 and 1.422 and 2.895 and 1.583 and 2.086 and 0.7206 and 2.179 and 0.5673
IFI6, Type I IFN signalling array raw data [1, 7]: 3.893 and 2.681 and 0.9581 and 2.49 and 3.897 and 2.026 and 3.3942 and 1.435 and 1.657
IFI16, Type I IFN signalling array raw data [1, 7]: 1.765 and 1.775 and 1.077 and 1.992 and 2.377 and 1.622 and 1.064 and 1.533 and 1.821
IFIH1, Type I IFN signalling array raw data [1, 7]: 4.423 and 3.6 and 2.511 and 3.468 and 5.097 and 3.98 and 3.849 and 3.949 and 3.417
IFIT1, Type I IFN signalling array raw data [1, 7]: 4.29 and 4.385 and 1.626 and 3.83 and 6.5533 and 6.518 and 4.252 and 2.844 and 3.475
IFIT2, Type I IFN signalling array raw data [1, 7]: 4.664 and 3.908 and 1.678 and 5.248 and 5.235 and 3.764 and 3.486 and 3.028 and 3.269
IFIT3, Type I IFN signalling array raw data [1, 7]: 3.799 and 3.675 and 1.209 and 4.928 and 5.414 and 5.436 and 3.503 and 5.877 and 2.486
IFITM1, Type I IFN signalling array raw data [1, 7]: 0.9488 and 1.1781 and 0.3954 and 0.8994 and 1.9714 and 0.8768 and 1.144 and 1.6293 and 0.7125
IFITM2, Type I IFN signalling array raw data [1, 7]: 4.648 and 5.173 and 4.79 and 4.974 and 4.481 and 3.9861 and 4.845 and 5.367 and 4.762
IFITM3, Type I IFN signalling array raw data [1, 7]: 3.968 and 3.916 and 1.59 and 3.568 and 4.151 and 2.877 and 3.902 and 1.131 and 2.5357
IRF1, Type I IFN signalling array raw data [1, 7]: 2.547 and 1.821 and 1.073 and 2.335 and 1.158 and 0.9908 and 0.6649 and 1.927 and 1.207
IRF7, Type I IFN signalling array raw data [1, 7]: 6.802 and 6.586 and 3.986 and 5.798 and 5.443 and 4.601 and 5.372 and 4.2831 and 3.547
IRF9, Type I IFN signalling array raw data [1, 7]: 2.19 and 2.335 and 0.975 and 2.229 and 2.461 and 1.8963 and 1.69 and 1.214 and 1.521
ISG15, Type I IFN signalling array raw data [1, 7]: 3.986 and 3.922 and 0.692 and 4.262 and 5.477 and 7.495 and 2.508 and 1.711 and 2.311
ISG20, Type I IFN signalling array raw data [1, 7]: 2.62 and 3.224 and 2.385 and 3.3 and 3.623 and 2.618 and 2.595 and 4.036 and 2.585
MX1, Type I IFN signalling array raw data [1, 7]: 3.107 and 4.405 and 1.261 and 5.21 and 5.062 and 3.692 and 3.866 and 4.591 and 2.854
MX2, Type I IFN signalling array raw data [1, 7]: 4.125 and 4.0818 and 1.607 and 3.741 and 5.0213 and 4.032 and 3.318 and 2.653 and 2.691
MYD88, Type I IFN signalling array raw data [1, 7]: 3.738 and 3.075 and 2.51 and 2.925 and 2.927 and 2.376 and 3.074 and 1.908 and 3.454
NMI, Type I IFN signalling array raw data [1, 7]: 2.143 and 1.85 and 1.491 and 1.973 and 3.716 and 1.264 and 1.346 and 2.497 and 2.32
OAS1, Type I IFN signalling array raw data [1, 7]: 4.424 and 3.836 and 1.737 and 5.327 and 4.793 and 3.413 and 3.498 and 2.187 and 2.863
OAS2, Type I IFN signalling array raw data [1, 7]: 4.608 and 3.615 and 1.642 and 3.798 and 4.119 and 3.655 and 2.504 and 2.941 and 2.821
PML, Type I IFN signalling array raw data [1, 7]: 4.552 and 5.075 and 2.988 and 4.3611 and 4.177 and 3.436 and 3.3349 and 3.807 and 3.407
SOCS1, Type I IFN signalling array raw data [1, 7]: 3.578 and 4.266 and 3.582 and 3.8466 and 3.6323 and 2.7 and 3.416 and 2.793 and 2.573
STAT1, Type I IFN signalling array raw data [1, 7]: 0.977 and -0.7577 and -0.7275 and 0.7898 and -0.2011 and 0.5637 and -1.166 and 0.2201 and -0.8389
STAT2, Type I IFN signalling array raw data [1, 7]: 3.968 and 3.159 and 2.8038 and 5.573 and 3.712 and 3.001 and 2.882 and 3.307 and 2.683
STAT3, Type I IFN signalling array raw data [1, 7]: 6.676 and 4.39 and 1.897 and 3.494 and 2.053 and 1.773 and 1.353 and 3.435 and 1.673
TAP1, Type I IFN signalling array raw data [1, 7]: 2.3591 and 1.9257 and 1.563 and 2.7124 and 1.578 and 1.336 and 0.8182 and 1.844 and 1.137
TNFSF10, Type I IFN signalling array raw data [1, 7]: 3.902 and 3.285 and 2.141 and 3.031 and 3.789 and 2.995 and 3.1028 and 5.015 and 2.882
ISG expression (ISG15, IFIT1, IFIT2, IFITM1, CXCL10) [2]: reduced gene expression for all five ISGs
CXCL10, healthy donor PBMCs (Fig. 6c) ([3]; Healthy donor HC1): 77.343
CXCL10, healthy donor PBMCs (Fig. 6c) ([3]; Healthy donor HC2): 68.1378
CXCL10, healthy donor PBMCs (Fig. 6c) ([3]; Healthy donor HC3): 64.5563
CXCL10 [4, 8]: 1.514 and 0.251 and 1.066 and 0.167 and 0.5332 and 0.7533 and 1.612 and 0.6702 and 0.5368 and 1.6313 and 0.1436 and 0.6323 and 0.4166 and 0.1288 and 0.6936 and 0.646 and 0.6924 and 0.6022 and 0.5701 and 0.08999
IFIT1 [4, 8]: 0.2868 and 0.437 and 1.363 and 0.3735 and 0.4257 and 0.6696 and 0.8252 and 0.3503 and 0.5958 and 0.5382 and 1.388 and 0.256 and 0.9671 and 0.1288 and 0.6936 and 1.317 and 1.359 and 0.9945 and 0.8122 and 0.05751
ISG15 [4, 8]: 0.9038 and 0.4123 and 1.522 and 0.5454 and 1.252 and 0.967 and 0.791 and 0.6842 and 0.9244 and 0.2949 and 0.1516 and 1.006 and 0.9237 and 0.1709 and 0.7851 and 1.799 and 0.9132 and 0.323 and 0.9506 and 0.1287
MX1 [4, 8]: 0.4428 and 0.9634 and 1.459 and 0.4711 and 0.7459 and 1.024 and 0.9419 and 0.919 and 0.9953 and 1.074 and 1.146 and 0.5685 and 0.9032 and 0.1777 and 0.6324 and 0.9421 and 1.363 and 0.7344 and 1.47 and 0.4028
composite ISG score ([4]; unstimulated SSc PBMCs (n = 20), 2 µM, 16 h, relative to AP-5-145): reduced the composite ISG score
ISRE luciferase signal in THP-1 supernatant [5]: 374 and 491 and 321
NF-κB SEAP reporter signal [6]: 1.133 and 1.071 and 1.161

Source: article PMC7617869, “Molecular glues that inhibit deubiquitylase activity and inflammatory signaling” (Nature Structural & Molecular Biology, 2025)
